# Laboratory results: PMC10987480, “Biological and mutational analyses of CXCR4–antagonist interactions and design of new antagonistic analogs” (Bioscience Reports, 2023)
# Positions of bridges follow the written chain, without caps; N, C: chain ends. Non-standard residues stand in square brackets, D forms with d. Chains are numbered I, II in the order given. No end group written: not given here.
# Legend:
# CXCR4 W195A = target: T1, CXCR4 W195A (Homo sapiens, UniProt P61073, W195A); experiment: Competitive binding to CXCR4 mutant W195A (12G5, CHO cells); conditions: TM4, class of reduction vs wild-type CXCR4, 12G5 competition, averages of at least three independent experiments
# T1 construct: expressed in transfected cells
# T1 sequence (P61073 whole entry W195A): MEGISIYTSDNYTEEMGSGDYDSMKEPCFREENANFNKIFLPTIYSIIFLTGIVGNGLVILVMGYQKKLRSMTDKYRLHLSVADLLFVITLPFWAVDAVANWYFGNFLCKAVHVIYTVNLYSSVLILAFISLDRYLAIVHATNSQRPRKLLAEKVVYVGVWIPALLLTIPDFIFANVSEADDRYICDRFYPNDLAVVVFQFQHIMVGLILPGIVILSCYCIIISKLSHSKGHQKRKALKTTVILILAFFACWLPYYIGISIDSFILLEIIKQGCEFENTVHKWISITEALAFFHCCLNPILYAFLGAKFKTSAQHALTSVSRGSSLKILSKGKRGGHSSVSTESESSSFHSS
# Experimental: (§1) Plasmid pcDNA3-CXCR4 and mutated pcDNA3-CXCR4 were extracted and transfected into CHO cells using Lipofectamine 2000 according to the manufacturer’s guidelines. The selective medium containing G418 at a concentration of 1.2 mg/ml was applied to isolate stably transfected cells. CHO cells expressing wild-type CXCR4 and mutant CXCR4 were obtained using fluorescence-activated cell sorting (FACS).
# (§2) All of the CXCR4 mutants were prepared using PCR technology. Briefly, pairs of asymmetrical primers containing the desired amino acid mutations (Supplementary Tables S1 and S2), each complementary to opposite strands of the pcDNA3–CXCR4, were designed for amplification by Q5® High-Fidelity DNA polymerase and the generation of mutated constructs. The methylated pcDNA3–CXCR4 templates were digested by DpnI. The mutated pcDNA3–CXCR4 was transformed into competent E. coli TOP10 for long-term storage and amplification.
# (§3) The procedure for the CXCR4 competitive binding experiments was published previously. Briefly, CXCR4 antibody 12G5 (250 ng/ml) was incubated with 5 × 10^5 cells and varying concentrations of unlabeled compounds in a final volume of 100 μl of assay buffer (PBS with 0.5% BSA and 0.05% NaN3) in 96-well plates for 40 min on ice, after being washed with assay buffer once. The cells were incubated with FITC-conjugated second antibody IgG for 30 min on ice, then washed with assay buffer three times. The fluorescence intensity was measured for excitation at 485 nm and emission at 535 nm using multimode plate reader (PerkinElmer). The IC50 values were calculated using graphpad Prism 7. Experiments were performed at least three times.
# CXCR4 D262E = target: T2, CXCR4 D262E (Homo sapiens, UniProt P61073, D262E); experiment: Competitive binding to CXCR4 mutant D262E (12G5, CHO cells); conditions: TM6, class of reduction vs wild-type CXCR4, 12G5 competition, averages of at least three independent experiments
# T2 construct: expressed in transfected cells
# T2 sequence (P61073 whole entry D262E): as the sequence (P61073 whole entry W195A) above, with A195W, D262E counted along it
# Experimental: as §1, §2, §3
# CXCR4 H281A = target: T3, CXCR4 H281A (Homo sapiens, UniProt P61073, H281A); experiment: Competitive binding to CXCR4 mutant H281A (12G5, CHO cells); conditions: TM7, class of reduction vs wild-type CXCR4, 12G5 competition, averages of at least three independent experiments
# T3 construct: expressed in transfected cells
# T3 sequence (P61073 whole entry H281A): as the sequence (P61073 whole entry W195A) above, with A195W, H281A counted along it
# Experimental: as §1, §2, §3
# CXCR4 H113A = target: T4, CXCR4 H113A (Homo sapiens, UniProt P61073, H113A); experiment: Competitive binding to CXCR4 mutant H113A (12G5, CHO cells); conditions: TM3, class of reduction vs wild-type CXCR4, 12G5 competition, averages of at least three independent experiments
# T4 construct: expressed in transfected cells
# T4 sequence (P61073 whole entry H113A): as the sequence (P61073 whole entry W195A) above, with H113A, A195W counted along it
# Experimental: as §1, §2, §3
# CXCR4 [1] = target: T5, CXCR4 (Homo sapiens, UniProt P61073); experiment: SDF-1α-induced calcium mobilization assay in SupT1 cells (Fluo-4); type: cell-based; set-up: host or cells: SupT1 cells; conditions: 50 nM SDF-1α
# T5 sequence (P61073 whole entry): as the sequence (P61073 whole entry W195A) above, with A195W counted along it
# Experimental: Figure 2 The inhibitory effect of the antagonists on SDF-1α-induced cell chemotaxis and calcium mobilization in SupT1 cells The antagonists and concentrations used were labeled in each lane. (A) The inhibition of cell migration by the noted antagonists. SupT1 cells pre-treated with or without CXCR4 antagonists were seeded in the upper well and cell migrated by 2 nM SDF-1α. Migrated cells without SDF-1α were used as a negative (0%) and migrated cell induced by SDF-1α as a positive control (100%). […] SupT1 cells were treated with or without CXCR4 antagonists and activated by 50 nM SDF-1α. To directly compare the inhibitory effect of the antagonists on calcium mobilization, the vehicle background and baseline were removed using GraphPad and Origin. The data were averages of at least three independent experiments.
# SupT1 cells were collected and washed using HHBS buffer (Hanks’ Balanced Salt solution supplemented with 20 mM HEPES) and incubated with 1 mM probenecid (Energy Chemical, China) and 4 μM Fluo-4 (AAT bioquest, U.S.A.) for 37°C for 30 min with vortex every 5 min. After being washed with HHBS, cells were suspended in PBS at 2 × 10^6/ml and seeded 200 μl cells and various concentrations of compounds per well in 96-well plate. Following 50 nM SDF-1α was added to each well, the fluorescence intensity was measured (Ex/Em = 496/516 nm) using EnSpire® multimode plate reader (PerkinElmer, U.S.A.).
# CXCR4 Y255A = target: T6, CXCR4 Y255A (Homo sapiens, UniProt P61073, Y255A); experiment: Competitive binding to CXCR4 mutant Y255A (12G5, CHO cells); conditions: TM6, class of reduction vs wild-type CXCR4, 12G5 competition, averages of at least three independent experiments
# T6 construct: expressed in transfected cells
# T6 sequence (P61073 whole entry Y255A): as the sequence (P61073 whole entry W195A) above, with A195W, Y255A counted along it
# Experimental: as §1, §2, §3
# CXCR4 W161A = target: T7, CXCR4 W161A (Homo sapiens, UniProt P61073, W161A); experiment: Competitive binding to CXCR4 mutant W161A (12G5, CHO cells); conditions: TM4, class of reduction vs wild-type CXCR4, 12G5 competition, averages of at least three independent experiments
# T7 construct: expressed in transfected cells
# T7 sequence (P61073 whole entry W161A): as the sequence (P61073 whole entry W195A) above, with W161A, A195W counted along it
# Experimental: as §1, §2, §3
# CXCR4 T117A = target: T8, CXCR4 T117A (Homo sapiens, UniProt P61073, T117A); experiment: Competitive binding to CXCR4 mutant T117A (12G5, CHO cells); conditions: TM3, class of reduction vs wild-type CXCR4, 12G5 competition, averages of at least three independent experiments
# T8 construct: expressed in transfected cells
# T8 sequence (P61073 whole entry T117A): as the sequence (P61073 whole entry W195A) above, with T117A, A195W counted along it
# Experimental: as §1, §2, §3
# CXCR4 D97A = target: T9, CXCR4 D97A (Homo sapiens, UniProt P61073, D97A); experiment: Competitive binding to CXCR4 mutant D97A (12G5, CHO cells); conditions: TM2, class of reduction vs wild-type CXCR4, 12G5 competition, averages of at least three independent experiments
# T9 construct: expressed in transfected cells
# T9 sequence (P61073 whole entry D97A): as the sequence (P61073 whole entry W195A) above, with D97A, A195W counted along it
# Experimental: as §1, §2, §3
# CXCR4 [2] = target: T5, CXCR4; experiment: Competitive CXCR4 binding assay (12G5 antibody probe), wild-type CXCR4 transfected CHO cells; set-up: expressed in transfected cells; Competitive receptor binding activity, wild-type CXCR4 (WT): key to the marks not given beside the values; conditions: class relative to wild-type; 12G5 competition, stably transfected CHO cells; averages of at least three independent experiments
# Experimental: The CXCR4-specific antibody, 12G5 was used as a probe for the competitive CXCR4 binding assay to evaluate the binding activity of CXCR4 antagonists.
# Figure 1 Competitive CXCR4 binding curves of eleven CXCR4 antagonists The CXCR4 transfected CHO cells were incubated with different concentrations of antagonists and 250 ng/ml 12G5 antibody. The CXCR4-binding 12G5 antibody was recognized by FITC-conjugated anti-IgG second antibody. The cells treated with only second antibody were used as a negative control (0%) while cells treated with both 12G5 antibody and second antibody were used as a positive control (100%). Cells treated with CXCR4 antagonists were calculated in percentage relative to the positive and negative controls. The data were averages of at least three independent experiments and shown as mean ± standard error of the mean (S.E.M.).
# as §3
# CXCR4 V112A = target: T10, CXCR4 V112A (Homo sapiens, UniProt P61073, V112A); experiment: Competitive binding to CXCR4 mutant V112A (12G5, CHO cells); conditions: TM3, class of reduction vs wild-type CXCR4, 12G5 competition, averages of at least three independent experiments
# T10 construct: expressed in transfected cells
# T10 sequence (P61073 whole entry V112A): as the sequence (P61073 whole entry W195A) above, with V112A, A195W counted along it
# Experimental: as §1, §2, §3
# CXCR4 Y45A = target: T11, CXCR4 Y45A (Homo sapiens, UniProt P61073, Y45A); experiment: Competitive binding to CXCR4 mutant Y45A (12G5, CHO cells); conditions: TM1, class of reduction vs wild-type CXCR4, 12G5 competition, averages of at least three independent experiments
# T11 construct: expressed in transfected cells
# T11 sequence (P61073 whole entry Y45A): as the sequence (P61073 whole entry W195A) above, with Y45A, A195W counted along it
# Experimental: as §1, §2, §3
# CXCR4 H203A = target: T12, CXCR4 H203A (Homo sapiens, UniProt P61073, H203A); experiment: Competitive binding to CXCR4 mutant H203A (12G5, CHO cells); conditions: TM5, class of reduction vs wild-type CXCR4, 12G5 competition, averages of at least three independent experiments
# T12 construct: expressed in transfected cells
# T12 sequence (P61073 whole entry H203A): as the sequence (P61073 whole entry W195A) above, with A195W, H203A counted along it
# Experimental: as §1, §2, §3
Compound,"Competitive receptor binding activity, CXCR4 W195A (CXCR4 W195A)","Competitive receptor binding activity, CXCR4 D262E (CXCR4 D262E)","Competitive receptor binding activity, CXCR4 H281A (CXCR4 H281A)","Competitive receptor binding activity, CXCR4 H113A (CXCR4 H113A)",Inhibition of the calcium signal (CXCR4 [1]; at 50 nM) [%],"Competitive receptor binding activity, CXCR4 Y255A (CXCR4 Y255A)","Competitive receptor binding activity, CXCR4 W161A (CXCR4 W161A)","Competitive receptor binding activity, CXCR4 T117A (CXCR4 T117A)","Competitive receptor binding activity, CXCR4 D97A (CXCR4 D97A)","Competitive receptor binding activity, wild-type CXCR4 (WT) (CXCR4 [2])","Competitive receptor binding activity, CXCR4 V112A (CXCR4 V112A)","Competitive receptor binding activity, CXCR4 Y45A (CXCR4 Y45A)","Competitive receptor binding activity, CXCR4 H203A (CXCR4 H203A)","inhibition at 1 µM (CXCR4 [1]; SUP-T1, at 1 μM) [%]",Inhibition of calcium mobilization (in words) (CXCR4 [1]; at 5 nM)
"LGASWHRPDKCCLGYQKRPLPQVLLSSWYPTSQLCSKPGVIFLTKRGRQVCADKSKDWVKKLMQQLPVTAR [vMIP-II, viral macrophage-inflammatory protein-II, full-length natural chemokine antagonist produced by human herpesvirus-8; recombinant from Peprotech]",++ (10–29% reduction compared with wild-type CXCR4),++ (10–29% reduction compared with wild-type CXCR4),+++,+++,64,+++,+++,+++,++ (10–29% reduction compared with wild-type CXCR4),+++,+++,+++,+++,,
"I: [dL]G[dA][dS][dW][dH][dR][dP][dD][dK][dC][dC][dL]G[dY][dQ][dK][dR][dP][dL][dP] / II: [dL]G[dA][dS][dW][dH][dR][dP][dD][dK][dC][dC][dL]G[dY][dQ][dK][dR][dP][dL][dP] (disulfide I:11-II:11, I:12-II:12) [DV1 dimer]",+++,++ (10–29% reduction compared with wild-type CXCR4),++ (10–29% reduction compared with wild-type CXCR4),+ (30–60% reduction compared with wild-type CXCR4),,+++,+++,++ (10–29% reduction compared with wild-type CXCR4),++ (10–29% reduction compared with wild-type CXCR4),+++,+++,++ (10–29% reduction compared with wild-type CXCR4),++ (10–29% reduction compared with wild-type CXCR4),75,
c1cc(CN2CCCNCCNCCCNCC2)ccc1CN1CCCNCCNCCCNCC1 [AMD3100],+++,+ (30–60% reduction compared with wild-type CXCR4),+++,++ (10–29% reduction compared with wild-type CXCR4),,++ (10–29% reduction compared with wild-type CXCR4),+++,+++,++ (10–29% reduction compared with wild-type CXCR4),+++,+++,++ (10–29% reduction compared with wild-type CXCR4),+++,,very weak inhibition
